The target in test [1] is T1, recombinant human macrophilin-12 (FKBP-12) (Homo sapiens, UniProt P62942).
T1 construct: biotin (label)
Kind of test: Macrophilin binding assay (MBA), competitive binding against immobilized FK-506. The settings on record: inhibition of biot-MAP binding to immobilized FK-506. The text has this:
3. Macrophilin binding assay (MBA)
Rapamycin and the structurally related immunosuppressant, FK-506, are both known to bind in vivo to macrophilin-12 (also known as FK-506 binding protein or FKBP-12), and this binding is thought to be related to the immunosuppressive activity of these compounds. […] In this assay, FK-506 coupled to BSA is used to coat microtiter wells. Biotinylated recombinant human macrophilin-12 (biot-MAP) is allowed to bind in the presence or absence of a test sample to the immobilized FK-506. After washing (to remove non-specifically bound macrophilin), bound biot-MAP is assessed by incubation with a streptavidin-alkaline phosphatase conjugate, followed by washing and subsequent addition of p-nitrophenyl phosphate as a substrate. The read-out is the OD at 405 nm. Binding of a test sample to biot-MAP results in a decrease in the amount of biot-MAP bound to the FK-506 and thus in a decrease in the OD405. A dilution series of the test sample allows determination of the concentration resulting in 50% inhibition of the biot-MAP binding to the immobilized FK-506 (IC50). The inhibitory capacity of a test sample is compared to the IC50 of free FK506 as a standard and expressed as a relative IC50 (i.e., IC50 test sample/IC50 -free FK506).

For test [2], the system named is rat kidney allograft. Kind of test: Chronic allograft rejection, rat kidney allograft model. It is filed as in vivo. The settings on record: per os, 0.5 to 2.5 mg/kg, 69-72 days starting day 53-64 after transplantation. On the procedure:
10. Chronic Allogaft Rejection
The kidney of a male DA (RT1^a) rat is orthotopically transplanted into a male Lewis (RT1^l) recipient. In total 24 animals are transplanted. All animals are treated with cyclosporine A at 7.5 mg/kg/day per os for 14 days starting on the day of transplantation, to prevent acute cellular rejection. Contralateral nephrectomy is not performed. Each experimental group treated with a distinct dose of a compound of formula I or placebo comprises six animals.
Starting at day 53-64 after transplantation, the recipient animals are treated per os for another 69-72 days with a compound of formula I or receive placebo. At 14 days after transplantation animals are subjected to graft assessment by magnetic resonance imaging (MRI) with perfusion measurement of the kidneys (with comparison of the grafted kidney and the own contralateral kidney). This is repeated at days 53-64 after transplantation and at the end of the experiment. The animals are then autopsied. Rejection parameters such as MRI score, relative perfusion rate of the grafted kidney and histologic score of the kidney allograft for cellular rejection and vessel changes are determined and statistically analyzed.

The test system of test [3] is interleukin-6 (IL-6)-dependent mouse hybridoma cell line. In words: IL-6 mediated proliferation (IL-6 PROL). The settings on record: inhibition of IL-6 dependent hybridoma proliferation, (3-H)thymidine incorporation; relative to rapamycin. The test is classed as cell-based. The protocol: 2. IL-6 mediated proliferation (IL-6 PROL)
The capacity of the Compounds of formula I to interfere with growth factor, associated signalling pathways is assessed using an interleukin-6 (IL-6)-dependent mouse hybridoma cell line. The assay is performed in 96-well microtiter plates. […] Following a 66 hour incubation in the absence or presence of a test sample, cells are pulsed with 1 μCi (3-H)thymidine/well for another 6 hours, harvested and counted by liquid scintillation. (3-H)thymidine incorporation into DNA correlates with the increase in cell number and is thus a measure of cell proliferation. […] The inhibitory capacity of the test sample may be compared to rapamycin and expressed as a relative IC50 (i.e. test sample/IC50 rapamycin).
(Incorporation of labelled thymidine or its analogues reports DNA synthesis.)

The subject of test [4] is Balb/c spleen cells. In words: Mixed lymphocyte reaction (MLR), murine. The test is classed as cell-based, mouse. The settings on record: inhibition of Balb/c spleen cell proliferation, 5 days co-incubation with irradiated CBA spleen cells; relative to rapamycin. The text has this:
1. Mixed lymphocyte reaction (MLR)
The Mixed Lymphocyte Reaction was originally developed in connection with allografts, to assess the tissue compatibility between potential organ donors and recipients, and is one of the best established models of immune reaction in vitro. […] The irradiated allogeneic cells induce a proliferative response in the Balb/c spleen cells which can be measured by labeled precursor incorporation into the DNA. […] The inhibitory capacity of the test sample may be compared to rapamycin and expressed as a relative IC50 (i.e. IC50 test sample/IC50 rapamycin).

Test [5] deals with myointimal proliferation in balloon-injured carotid artery. Kind of test: Angioplasty (balloon catheterization of the carotid artery). It is filed as in vivo. The settings on record: rat, per os, daily dose 0.5 to 2.5 mg/kg, day -3 to day +14.
Experimental: Under Isofluorane anaesthesia, a Fogarty 2F catheter is introduced into the left common carotid artery via the external carotid and inflated (distension=10 μl H2 O). The inflated balloon is withdrawn along the length of the common carotid three times, the latter two times whilst twisting gently to obtain a uniform de-endothelialization. The cathether is then removed, a ligature placed around the external carotid to prevent bleeding and the animals allowed to recover.
2 groups of 12 RoRo rats (400 g, approximately 24 weeks old) are used for the study: one control group and one group receiving the compound to be tested. The rats are fully randomized during all handling, experimental procedures and analysis.
The compound to be tested is administered p.o. (gavage) starting 3 days before balloon injury (day -3) until the end of the study, 14 days after balloon injury (day +14). Rats are kept in individual cages and allowed food and water ad libidum. […]
Sections 1-2 μm thick are cut from the middle section of each carotid with a hard metal knife on a rotary microtome and stained for 2 min with Giemse-stain. About 5 sections from each carotid are thus prepared and the cross-sectional areal of the media, neointima and the lumen morphometrically evaluated by means of an image analysis system (MCID, Toronto, Canada).

T1 sequence (P62942 whole entry): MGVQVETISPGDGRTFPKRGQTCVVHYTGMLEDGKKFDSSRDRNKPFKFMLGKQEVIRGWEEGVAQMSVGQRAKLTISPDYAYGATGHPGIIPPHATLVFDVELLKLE

In the case of `CO[C@H]1C[C@@H]2CC[C@@H](C)[C@@](O)(O2)C(=O)C(=O)N2CCCC[C@H]2C(=O)O[C@H]([C@H](C)C[C@@H]2CC[C@@H](O)[C@H](OC)C2)CC[C@H](C)/C=C(\C)[C@@H](O)[C@@H](OC)C(=O)[C@H](C)C[C@H](C)/C=C/C=C/C=C/1C` [Example 1, 32-Deoxorapamycin], the “relative IC50 (IC50 test sample/IC50 free FK506)” value in test [1] is reported as 1. For the same molecule, the “rejection parameters (MRI score, relative perfusion rate of grafted kidney, histologic score)” value in test [2] is “reduction in all above mentioned rejection parameters”. Moreover, the “relative IC50 (test sample/IC50 rapamycin)” value in test [3] is reported as 0.2. In test [4], the “relative IC50 (IC50 test sample/IC50 rapamycin)” value is 0.3. In test [5], the myointimal proliferation entry is “inhibit myointimal proliferation”.

`CCC#CCO[C@H]1C[C@@H]2CC[C@@H](C)[C@@](O)(O2)C(=O)C(=O)N2CCCC[C@H]2C(=O)O[C@H]([C@H](C)C[C@@H]2CC[C@@H](O)[C@H](OC)C2)C[C@H](O)[C@H](C)/C=C(\C)[C@@H](O)[C@@H](OC)C(=O)[C@H](C)C[C@H](C)/C=C/C=C/C=C/1C` [Example 2, 16-pent-2-ynyloxy-32(S)-dihydro rapamycin]: the “relative IC50 (IC50 test sample/IC50 free FK506)” value in test [1] was found to be 2.8. The “rejection parameters (MRI score, relative perfusion rate of grafted kidney, histologic score)” value in test [2] is “reduction in all above mentioned rejection parameters”. In addition, the “relative IC50 (test sample/IC50 rapamycin)” value in test [3] came out at 0.09. In addition, the “relative IC50 (IC50 test sample/IC50 rapamycin)” value in test [4] is on record as 0.08. The myointimal proliferation entry in test [5] is reported as “inhibit myointimal proliferation”.

With `CO[C@H]1C[C@@H]2CC[C@@H](C)[C@@](O)(O2)C(=O)C(=O)N2CCCC[C@H]2C(=O)O[C@H]([C@H](C)C[C@@H]2CC[C@@H](OCCO)[C@H](OC)C2)C[C@H](O)[C@H](C)/C=C(\C)[C@@H](O)[C@@H](OC)C(=O)[C@H](C)C[C@H](C)/C=C/C=C/C=C/1C` [Example 5, (32S)-dihydro40-(2-hydroxy)ethyl-rapamycin], the “relative IC50 (IC50 test sample/IC50 free FK506)” value in test [1] was 25.

Source of the values: patent publication US6200985A, “Rapamycin derivatives” (Novartis AG, priority 1995, dated 2001).
